Data: ChEMBL document CHEMBL1143834, “Activity of Garenoxacin against Macrolide-Susceptible and -Resistant Mycoplasma pneumoniae” (2007)
In brackets after ≈: the same amount, converted by molar mass.

Legend:
Assay type in all cases: functional
[1] = system: Mycoplasmoides pneumoniae; assay: Antimicrobial activity against macrolide-resistant Mycoplasma pneumoniae with 23S rRNA A2063G mutant isolate 6
[2] = system: Mycoplasmoides pneumoniae; assay: Antimicrobial activity against macrolide-resistant Mycoplasma pneumoniae with 23S rRNA A2064G mutant isolate 2
[3] = system: Mycoplasmoides pneumoniae; assay: Antimicrobial activity against macrolide-resistant Mycoplasma pneumoniae with 23S rRNA A2064G mutant isolate 4
[4] = system: Mycoplasmoides pneumoniae; assay: Antimicrobial activity against macrolide-susceptible Mycoplasma pneumoniae FH
[5] = system: Mycoplasmoides pneumoniae; assay: Antimicrobial activity against macrolide-susceptible Mycoplasma pneumoniae Mac
[6] = system: Mycoplasmoides pneumoniae; assay: Antimicrobial activity against macrolide-susceptible Mycoplasma pneumoniae M129
[7] = system: Mycoplasmoides pneumoniae; assay: Antimicrobial activity against macrolide-resistant Mycoplasma pneumoniae with 23S rRNA A2063G mutant isolate 1

Row | Compound | MIC [1] [µg/mL] | MIC [2] [µg/mL] | MIC [3] [µg/mL] | MIC [4] [µg/mL] | MIC [5] [µg/mL] | MIC [6] [µg/mL] | MIC [7] [µg/mL]
1 | CC[C@H]1OC(=O)[C@H](C)[C@@H](O[C@H]2C[C@@](C)(OC)[C@@H](O)[C@H](C)O2)[C@H](C)[C@@H](O[C@@H]2O[C@H](C)C[C@H](N(C)C)[C@H]2O)[C@](C)(OC)C[C@@H](C)C(=O)[C@H](C)[C@@H](O)[C@]1(C)O [CLARITHROMYCIN] | 32 (≈ 42.8 µM) | 8 (≈ 10.7 µM) | 8 (≈ 10.7 µM) | 0.004 (≈ 0.00535 µM) | 0.002 (≈ 0.00267 µM) | 0.002 (≈ 0.00267 µM) | 32 (≈ 42.8 µM)
2 | C[C@H]1NCc2cc(-c3ccc4c(=O)c(C(=O)O)cn(C5CC5)c4c3OC(F)F)ccc21 [GARENOXACIN] | 0.031 (≈ 0.0727 µM) | 0.016 (≈ 0.0375 µM) | 0.016 (≈ 0.0375 µM) | 0.016 (≈ 0.0375 µM) | 0.016 (≈ 0.0375 µM) | 0.016 (≈ 0.0375 µM) | 0.016 (≈ 0.0375 µM)
3 | COc1c(N2CCNC(C)C2)c(F)cc2c(=O)c(C(=O)O)cn(C3CC3)c12 (stereo not given) [GATIFLOXACIN] | 0.063 (≈ 0.168 µM) | 0.063 (≈ 0.168 µM) | 0.031 (≈ 0.0826 µM) | 0.063 (≈ 0.168 µM) | 0.063 (≈ 0.168 µM) | 0.063 (≈ 0.168 µM) | 0.031 (≈ 0.0826 µM)
4 | C[C@H]1COc2c(N3CCN(C)CC3)c(F)cc3c(=O)c(C(=O)O)cn1c23.C[C@H]1COc2c(N3CCN(C)CC3)c(F)cc3c(=O)c(C(=O)O)cn1c23.O [LEVOFLOXACIN] | 0.5 | 0.25 | 0.25 | 0.5 | 0.25 | 0.25 | 0.25
5 | CN(C)c1ccc(O)c2c1C[C@H]1C[C@H]3[C@H](N(C)C)C(O)=C(C(N)=O)C(=O)[C@@]3(O)C(O)=C1C2=O [MINOCYCLINE] | 0.25 (≈ 0.546 µM) | 0.25 (≈ 0.546 µM) | 0.25 (≈ 0.546 µM) | 0.5 (≈ 1.09 µM) | 0.25 (≈ 0.546 µM) | 0.25 (≈ 0.546 µM) | 0.25 (≈ 0.546 µM)
